Assay results as given in US5130327A, “Indole derivatives” (Consejo Superior de Investigaciones Cientificas, priority 1989, dated 1992).
Where two headings read alike, the source gives them in different places.

Key:
Bovine Brain MAO B = target: T1, Bovine Brain MAO B (Bos taurus, UniProt P56560); test: In vitro inhibition of MAO from bovine brain mitochondria, tyramine as substrate (form B); assay type: biochemical; conditions: pI50 = -log [I50], molar; bovine brain mitochondria, tyramine as substrate
T1 construct: in vitro activity of MAO from bovine brain mitochondria; from tissue; host or cells: bovine brain mitochondria
T1 sequence (P56560 1-520): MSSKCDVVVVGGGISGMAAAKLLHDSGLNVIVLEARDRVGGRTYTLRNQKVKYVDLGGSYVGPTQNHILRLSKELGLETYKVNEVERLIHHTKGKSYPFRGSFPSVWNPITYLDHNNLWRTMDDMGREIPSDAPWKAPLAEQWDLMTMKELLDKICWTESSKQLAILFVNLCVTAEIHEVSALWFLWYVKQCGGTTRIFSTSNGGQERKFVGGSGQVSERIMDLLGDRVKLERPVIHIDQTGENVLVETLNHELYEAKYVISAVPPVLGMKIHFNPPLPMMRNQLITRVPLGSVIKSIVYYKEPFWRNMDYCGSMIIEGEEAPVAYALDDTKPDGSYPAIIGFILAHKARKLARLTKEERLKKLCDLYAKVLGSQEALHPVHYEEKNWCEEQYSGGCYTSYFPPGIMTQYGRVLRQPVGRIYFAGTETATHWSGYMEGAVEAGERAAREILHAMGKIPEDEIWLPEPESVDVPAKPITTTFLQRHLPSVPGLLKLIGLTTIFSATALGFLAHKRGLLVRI
From the text: The following table illustrates the structure of particular compounds of the invention (1). It also gives specific pI50 values where pI50 =-log [I50 ] where [I50 ] is the molar concentration of test compound which inhibits 50% of the in vitro activity of MAO from bovine brain mitochondria using tyramine as substrate.

rat cerebral MAO A = test: Ex vivo inhibition of rat cerebral MAO A after single dosing; assay type: in vivo
Experimental: 2. "Ex vivo inhibition" of rat cerebral MAO A and B after single dosing.
This gives the degree of inhibition in vivo of both forms of the enzyme and variation of this inhibition with time after treatment with a single dose. […] Animals were sacrificed by decapitation 24 h. and 7 days after treatment and brains were removed and homogenized. Enzymatic activities determined in treated animals, were compared with the activities in control animals (100%).

[1] = test system: brain, duodenum and liver MAO B; test: In vivo inhibition of MAO B of different tissues after chronic treatment; set-up: species or system rat
Experimental: 4. "In vivo" inhibition of MAO A and B of different tissues after chronic treatment.
In order to evaluate the effect of compounds in a chronic treatment, the inhibitory activity on brain, duodenum and liver MAO A and B has been studied "in vivo". Wistar male rats were treated at two dose levels, 0.1 and 0.25 mg/kg i.p. for 15 and 21 days. Control rats received similar amounts of saline solution.

reuptake of dopamine = test: Reuptake of dopamine in vitro, crude synaptosomal preparation; assay type: biochemical, rat
Experimental: Influence on the reuptake of monoamines "in vitro" was also studied. The effect of the compounds on the reuptake of 5-HT noradrenaline and dopamine was studied using Wistar male rats (350±2.5 g). They were kept under controlled light and temperature conditions and fed "ad libitum" until killed. The animals were killed by decapitation and brains were frozen and stored at -20° C. prior to analysis. Brains were dissected on an ice-filled petri dish. The cortices for 5-HT and noradrenaline assay and striatum (including caudate nucleus, putamen and globus pallidus) for dopamine assay were immediately weighed and homogenized. […] All drugs used in the study were dissolved in the incubation medium in a concentration range 10^-4 to 10^-8 M and were preincubated with the crude synaptosomal preparation obtained from the treated brains, for 5 min. at 37° C. or 0° C. before the addition of the labelled substrate.

[2] = test system: cerebral β-adrenergic receptors; test: Effects of chronic treatment on β receptors; assay type: in vivo; conditions: chronic administration in the rat
Experimental: (§1) Effects of chronic treatment on α2 -, β- and 5-HT2 receptors. The test compounds, at a dose of 10 mg/kg/day i.p., were administered for 21 days to Wistar male rats (250±2.4 g). After treatment the animals were killed, brains were dissected and cortices were scraped from the dorsal surface of the […]. ^3 H UK 14304, ^3 H Dihydroalprenalol and ^3 H Ketanserin were used as ligands in the binding studies.

α-adrenergic receptors = test: Effects of chronic treatment on α2 receptors; assay type: in vivo; conditions: chronic administration in the rat
Experimental: as §1

[3] = Behavioural Despair (Porsolt's test); assay type: in vivo
Experimental: The pharmacological profile was carried out assessing the antidepressant activity with the following tests:
Behavioural Despair (Porsolt et al. Arch. Int. Pharmacodyn; 229:327-336, 1977),

[4] = Interaction with clonidine-induced hypoactivity; assay type: in vivo
From the text: (§2) The action mechanism was studied in acute and chronic treatments on the interaction response with clonidine, salbutamol (Richard, J. Intern. J. Neuroscience, 9:17-19, 1979) and tetrabenazine (Pletscher, A.: An. N.Y. Aca. Sci. 80:1039-1045, 1959), and the response to the potentiation with L-dopa, L-tryptophan, tryptamine (Jalfre, M. et al., Arch. Int. Pharmacodyn, 159:194-221, 1982) and β-phenylethylamine (Ortmann, et al, Psychopharmacol. 84:22-27, 1984).

[5] = Antagonism of tetrabenazine effects (ptosis and catalepsy); assay type: in vivo; conditions: ptosis and catalepsy at 60 and 120 minutes after administration; read-out: ED50, antagonism of effects induced by tetrabenazine
From the text: as §2

[6] = "Cheese effect" by tyramine potentiation; conditions: in vivo
Experimental: (§3) The secondary effects were studied mainly on the cardiovascular system, and the effects on the arterial pressure, heart rate and rhythm, P-R interval and isolated organ (rabbit aortic rings and isolated atria), were evaluated both after acute and chronic treatments. In the same way, the "cheese effect" was studied by means of the tyramine potentiation.

[7] = Secondary effects on the cardiovascular system; conditions: in vivo
Experimental: as §3

## C#CCN(C)Cc1cc2cc(OC)ccc2n1C [(l), N-methyl-N-propargyl-2-(1-methyl-5-methoxy-indolyl)methylamine]
Bovine Brain MAO B
  IC50: 891 nM
Rat cerebral MAO A; dose increased (5 mg/kg)
  Persistence of MAO A inhibitory effect: observed even after 7 days
Rat cerebral MAO A; single dose (1 mg/kg)
  Onset of MAO A inhibitory effect: reached soon after the administration of a single dose
[1]; hepatic
  Activity on hepatic MAO B: very low activity
[1]; intestinal
  Effect on intestinal MAO B: without any effect
Reuptake of dopamine
  Inhibition of the reuptake of dopamine: very weak inhibitor
  Potency as inhibitor of dopamine reuptake relative to amitryptiline: similar
  Potency as inhibitor of dopamine reuptake relative to imipramine: ten fold
[2]
  Number or affinity of cerebral β-adrenergic receptors: does not modify
α-adrenergic receptors
  Modifications on α-adrenergic receptors: not statistically significant
[3]; acute treatment, read-out: Porsolt's test MED, acute
  minimal effective dose: 50 mg/kg
[3]; chronic treatment, read-out: Porsolt's test MED, chronic
  minimal effective dose: 20 mg/kg
[3]; in vivo
  Persistence of activity in Porsolt's test: at least 24 hours
[4]; acute treatment
  Hypoactivity by clonidine, acute treatment: not modifying it
[4]; chronic treatment (5 days)
  Hypoactivity by clonidine, chronic treatment: antagonized
[5]
  ED50: < 6 mg/kg
[6]
  "Cheese effect": some "cheese effect"
[7]
  Cardiovascular effects: hypotensive and negative chronotrope
